Measurements published in patent publication US20090325863A1, “Somatostatin analogs and IGF-I inhibition for breast cancer prevention” (priority 2008, published 2009).
Entries after “also recorded” stand apart in the source; their conditions may differ. Marks after values point to notes of the source that are not given here. *1 amine or outer side, *2 acyl side, *3 side chain or, on linkers, in order; H or OH if unused. Where a SMILES comes first, the peptide text is derived from it. Side-chain parts run from the residue outwards. [ ]: non-standard residue; d: D form. The star is where a group is joined. Ethylenediamine = C(CN[*:2])N[*:1]; Hyp = O=C(O)[C@@H]1C[C@@H](O)CN1; Phg = N[C@H](C(=O)O)c1ccccc1; CO = O=C([*:1])[*:2]; Bn = c1ccc(C*)cc1

Columns and labels:
[1] = tested on: TUNEL labeled cells in mammary gland; test: Apoptosis by TUNEL staining in mammary gland, hGH+E2 model; assay type: in vivo, rat; conditions: for % TUNEL labeled cells, DH structure Mod + mild / % TUNEL labeled cells, Normal gland: 3 animals, 7 days; for % TUNEL labeled cells, DH structure Mod + mild: hGH + E2 control 1.9 ± 0.2 (P < 0.002); for % TUNEL labeled cells, Normal gland: hGH + E2 control 2.3 ± 0.1 (P < 0.001); for apoptosis / cell death (in words): hGH+E2 model versus hGH+E2 control
Text: We also looked at the effect of the various treatment regimens on apoptosis. GH+E2 inhibited apoptosis, with the results are as follows. […] The percent TUNEL labeled cells is depicted in TABLE 5 below.

[2] = tested on: hyperplastic lesions, LCIS and DCIS of human mammary gland; test: Proof of principle clinical trial, biopsies before and after treatment (Ki67, TUNEL); assay type: in vivo
Text: Background: Antiestrogens or aromatase inhibitors are used for breast cancer chemoprevention. These treatments cause unpleasant side effects including hot flashes and vaginal dryness. We have previously shown that IGF-I is required to permit estrogen and progesterone action in the mammary gland. […] Menopausal symptoms would not likely to occur with SOM230 since estrogen is not lowered. Material and Methods: We have approached this issue in several ways. 1) We developed a model of hyperplasia in hypophysectomized and oophorectomized female rats. Hyperplasia was induced by treatment with 600 mcg hGH and follicular phase concentrations of estradiol. Hyperplasia was assessed histologically in sections of mammary gland. 2) To assess translatability to humans we assessed cell proliferation and apoptosis in normal human breast from reduction mammoplasties and samples of usual hyperplasia. 3) We also determined availability of SST receptors in samples of atypical ductal hyperplasia and DCIS, and 4) We have begun to determine whether SOM230 will prevent hyperplasia in humans at risk for breast cancer as it does in rats.
A proof of principle clinical trial is underway to further confirm whether SOM230 inhibits cell proliferation and increases apoptosis in human mammary gland as it does in rats. Data is presently available on 11 enlisted subjects. All patients had atypical hyperplasia on core biopsy and were given 600 ug SOM230 twice daily by injection. Data is available on 8 patients who had forms of hyperplasia that increase the likelihood of developing breast cancer. […] The effect of SOM230 on apoptosis and cell proliferation in hyperplastic lesions in the 8 patients is graphed in FIG. 17. This was also true in 2 cases of LCIS, a pre-cancerous condition, and one case of ductal carcinoma in situ, a cancerous situation. Apoptosis and cell proliferation is graphed for the 2 lobular hyperplasia patients in FIG. 18. FIG. 19 provides a DCIS patient sample cell staining for TUNEL and Ki67 before and after SOM230 administration. DCIS is a very common type of noninvasive breast cancer in women. Thus, human beings respond to SOM230 by inhibiting IGF-I action in the mammary gland. Taken together with our data on relative effects of SOM230 and Tamoxifen our data provide evidence that SOM230 will be at least as effective in preventing or treating breast cancer as Tamoxifen.

[3] = tested on: Ki67 positive cells in mammary gland; test: Cell proliferation by Ki67 immunostaining in mammary gland, hGH+E2 model; assay type: in vivo, rat; conditions: for % Ki67 positive cells, Normal gland / % Ki67 positive cells, DH structure Mod + mild: 3 animals; for % Ki67 positive cells, Normal gland: hGH + E2 control 5.1 ± 0.1; for % Ki67 positive cells, DH structure Mod + mild: hGH + E2 control 22.5 ± 1.6 (P < 0.05); for cell proliferation / Ki67 staining (in words): hGH+E2 model versus hGH+E2 control
Protocol: The histological sections were also analyzed for cell proliferation by Ki67 immunostaining and for apoptosis by TUNEL. Twenty five percent of cells in areas of florid hyperplasia were stained for Ki67. […] When the glands were normal and not hyperplastic, only 5.1% stained for Ki67. […] The immunostaining for Ki67 can be seen in FIG. 3.
We next determined the effects of the various treatment regimens on cell proliferation as assessed by Ki67 immunostaining. […] The percent Ki67 positive cells is depicted in TABLE 4 below.

[4] = tested on: pYIRS-1 (phosphorylated IRS-1); test: pYIRS-1 staining in glands and mast cells of normally developing rats; assay type: in vivo, rat; conditions: 28 day old female rats treated from day 21
Text: (§1) We have found for the first time that mast cells play a role in normal mammary development. Mast cells appear around developing mammary gland structures in rats. […] The same animals when they were 21 days old were given SOM230. […] The mast cells are found directly around the developing glands in the stromal compartment.
That these mast cells are directly stimulated by IGF-I is supported by the observation that phosphorylated IRS-1 was reduced in mast cells on exposure to SOM230. The action of SOM230 in mammary gland is therefore one of IGF-I action inhibition. […] The one on the right panel is from an animal treated with SOM230. Not only was pYIRS-I reduced in glands but mast cells were reduced as well.

[5] = tested on: pYIRS-1 (phosphorylated IRS-1), product of IGF-I action; test: Immunostaining for phosphorylated IRS-1 in mammary gland, hGH+E2 model; assay type: in vivo, rat; conditions: hGH+E2 treated animals; staining most intense with hGH+E2
Text: FIG. 12 depicts immunostaining for pYIRS-1 (phosphorylated IRS-1) in a representative E2 treated control (upper left), an hGH+E2 treated animal (upper right), an hGH+E2+SOM230 treated animal (lower left) and an hGH+E2+tamoxifen treated animal (lower right). The intensity of staining parallels IGF-I action as phosphorylated IRS-1 is a product of IGF-I action. In this study, staining (brown color) was most intense in response to hGH+E2 and was inhibited by both SOM230 and tamoxifen. […] This reflection of inhibition of IGF-I activity also supports the greater inhibitory effect of SOM230 over that of tamoxifen.

SSTR-3 = SSTR-3 (Homo sapiens, UniProt P32745); conditions: cited from earlier work
[6] = tested on: mast cells in mammary glands; test: Mast cells and mammary development in normally developing rats treated from day 21 to 28; assay type: in vivo, rat; conditions: for Mast cell density stromal / Mast cell density around glands: 28 day old rats treated from day 21, 3 animals; for Mast cell density stromal: normal 3.5 ± 0.8; for Mast cell density around glands: normal 11.5 ± 1.6
Text: as §1
Overall, the number of mast cells/mm^2 was reduced by SOM230 treatment, as per TABLE 7 below. Mast cells surrounding glands and those elsewhere in the stromal compartment were both reduced.

[7] = 8 hyperplasia patients, 600 ug twice daily by injection, biopsy before/after
[8] = lobular carcinoma in situ patients (2 cases), excisional versus core biopsy

Chain of SSTR-3 (P32745 whole entry, species assumed): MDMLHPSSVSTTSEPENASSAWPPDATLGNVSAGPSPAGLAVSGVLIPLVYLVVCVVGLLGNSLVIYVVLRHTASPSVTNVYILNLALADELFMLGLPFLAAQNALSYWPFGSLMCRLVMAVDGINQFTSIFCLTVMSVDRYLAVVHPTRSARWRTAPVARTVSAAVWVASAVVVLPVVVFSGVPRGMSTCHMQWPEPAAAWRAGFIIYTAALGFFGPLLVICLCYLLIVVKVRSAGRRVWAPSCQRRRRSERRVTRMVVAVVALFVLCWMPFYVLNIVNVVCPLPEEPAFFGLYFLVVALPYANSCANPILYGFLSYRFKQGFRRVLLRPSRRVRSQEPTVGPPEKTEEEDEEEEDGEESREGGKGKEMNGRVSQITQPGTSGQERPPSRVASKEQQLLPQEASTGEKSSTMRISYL

NCCCC[C@@H]1NC(=O)[C@@H](Cc2c[nH]c3ccccc23)NC(=O)[C@H](c2ccccc2)NC(=O)[C@@H]2C[C@@H](OC(=O)NCCN)CN2C(=O)[C@H](Cc2ccccc2)NC(=O)[C@H](Cc2ccc(OCc3ccccc3)cc2)NC1=O [SOM230] (cyclo([Hyp]([CO-Ethylenediamine])[Phg][dW]KY(Bn)F))
% TUNEL labeled cells, DH structure Mod + mild [1]: increase in apoptosis | % TUNEL labeled cells, DH structure Mod + mild ([1]; listed as SOM): 5.5 ± 0.4% | % TUNEL labeled cells, Normal gland [1]: increase in apoptosis | % TUNEL labeled cells, Normal gland ([1]; listed as SOM): 6.5 ± 0.4% | apoptosis / cell death (in words) [1]: increase in cell death; also recorded: increase in apoptosis; also recorded: more apoptosis | apoptosis / cell death (in words) ([1]; listed as SOM 230): increase in apoptosis | apoptosis (TUNEL assay) in hyperplastic lesions [2, 7]: increase in apoptosis | cell proliferation (Ki67 assay) in hyperplastic lesions [2, 7]: inhibition of cell proliferation | apoptosis (TUNEL) in LCIS [2, 8]: increased apoptosis | cell proliferation (Ki67) in LCIS [2, 8]: decreased cell proliferation | % Ki67 positive cells, Normal gland [3]: no significant reduction | % Ki67 positive cells, Normal gland ([3]; listed as SOM): 4.3 ± 0.4% | % Ki67 positive cells, DH structure Mod + mild [3]: 14.2% | % Ki67 positive cells, DH structure Mod + mild ([3]; listed as SOM): 14.2 ± 2.5% | cell proliferation / Ki67 staining (in words) [3]: reduction in cell proliferation; also recorded: decrease in Ki67 staining | cell proliferation / Ki67 staining (in words) ([3]; listed as SOM 230): remarkable decrease in cell division | pYIRS-1 in glands and mast cells [4]: inhibited; also recorded: reduced | intensity of pYIRS-1 immunostaining [5]: inhibited | affinity for SSTR-3 (SSTR-3): has affinity | Mast cell density stromal [6]: reduced | Mast cell density stromal ([6]; listed as SOM): 1.1 ± 0.3^d MC#/1 mm^2 | Mast cell density around glands [6]: reduced | Mast cell density around glands ([6]; listed as SOM): 3.7 ± 0.7^b MC#/1 mm^2 | micro vessel density ([6]; normally developing glands versus SOM230 treated): greater in glands that were developing normally | mammary development ([6]; normally developing rats treated from day 21 to 28): inhibit mammary development
